Test results published in patent publication US20040005537A1, “Method of identifying toxic agents using differential gene expression” (priority 2000, published 2004).

System: rat heart tissue
Assay: GENECALLING differential gene expression analysis after dosing of serotonin modulating agents
Type: in vivo, Sprague Dawley rats
In short: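 GENECALLING profiling of cDNA from total RNA, keeping gene fragments modulated beyond ±1.5-fold. Tissue collected 24 h after final dosing of serotonin modulating agents; control rats received sterile water or canola oil.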

SMILES: CNS(=O)(=O)Cc1ccc2[nH]cc(CCN(C)C)c2c1 [sumatriptan]
- Effects on Transcription Level: Novel gene fragment, 535 bp, 90% SI to mouse slow/cardiac troponin C [M29793] (CARDIOTOX 71): −2.1 fold
- Effects on Transcription Level: Novel gene fragment, 445 bp, 85% SI to human skeletal muscle alpha 2 actinin [M86406] (CARDIOTOX 72): 5.7 fold
- Effects on Transcription Level: Novel gene fragment, 246 bp, 89% SI to mouse ponsin-1 [AF078667] (CARDIOTOX 73): −3.2 fold
- Effects on Transcription Level: Novel gene fragment, 126 bp, 77% SI to human DNA sequence from cosmid V311G7, between markers DXS366 and DXS87 on chromosome X [Z69304] (CARDIOTOX 74): +2.1 fold
- Effects on Transcription Level: Novel gene fragment, 370 bp (CARDIOTOX 75): −2.7 fold
- Effects on Transcription Level: Novel gene fragment, 337 bp, 78% SI to novel human protein AHNAK [M80899] (CARDIOTOX 76): −4.3 fold
- Effects on Transcription Level: Novel gene fragment, 100 bp, 93% SI to human KIAA0750 protein [ABO18293] (CARDIOTOX 77): −9.3 fold
- Effects on Transcription Level: Novel gene fragment, 44 bp (CARDIOTOX 78): −5.4 fold
- Effects on Transcription Level: Novel gene fragment, 698 bp, 93% SI to mouse plenty-of-prolines-101 [AF062655] (CARDIOTOX 79): −2.3 fold
- Effects on Transcription Level: Novel gene fragment, 660 bp, 84% SI to mouse membrane protein TMS-2 [AF181685] (CARDIOTOX 80): −3.8 fold
- Effects on Transcription Level: Novel gene fragment, 115 bp (CARDIOTOX 81): −4.1 fold
- Effects on Transcription Level: Novel gene fragment, 294 bp, 95% SI to mouse Ndr1 related protein Ndr2 [AB033921] (CARDIOTOX 82): −2.0 fold
- Effects on Transcription Level: Novel gene fragment, 198 bp (CARDIOTOX 83): +2.5 fold
- Effects on Transcription Level: Novel gene fragment, 730 bp, 86% SI to mouse E800 [Y10968] (CARDIOTOX 84): −2.8 fold
- Effects on Transcription Level: Novel gene fragment, 294 bp, 98% SI to cysteine conjugate beta-lyase [S61960] (CARDIOTOX 85): −2.8 fold
- Effects on Transcription Level: Aconitase (CARDIOTOX 86, GenBank A1243266): −1.9 fold
- Effects on Transcription Level: Ribosomal protein L7 (CARDIOTOX 87, GenBank M17422): +2.5 fold
- Effects on Transcription Level: Ribosomal protein L9 (CARDIOTOX 88, GenBank X51706): +10.1 fold
- Effects on Transcription Level: Ribosomal protein L12 (CARDIOTOX 89, GenBank X53504): −1.5 fold
- Effects on Transcription Level: 18S, 5.8S, and 28S ribosomal RNA's (CARDIOTOX 90, GenBank V01270): +5 fold
- Effects on Transcription Level: Pyruvate dehydrogenase kinase 2 (PDK2) (CARDIOTOX 91, GenBank U10357): −6.10 fold
- Effects on Transcription Level: D-Binding Protein (DBP) (CARDIOTOX 92, GenBank J03179): −1.4 fold
- Effects on Transcription Level: Lipoprotein lipase (CARDIOTOX 93, GenBank L03294): −2.2 fold
- Effects on Transcription Level: Non-neuronal enolase (CARDIOTOX 94, GenBank X02610): +3.5 fold
- Effects on Transcription Level: Glycogen phosphorylase (muscle isozyme) (CARDIOTOX 95, GenBank L10669): −2.6 fold
- Effects on Transcription Level: Cytochrome c oxidase subunit IV (CARDIOTOX 96, GenBank X14209): +10.0 fold
- Effects on Transcription Level: Alpha-globin (CARDIOTOX 97, GenBank M17083): +3.8 fold
- Effects on Transcription Level: Beta-globin (CARDIOTOX 98, GenBank X06701): +3.11 fold
- Effects on Transcription Level: Myoglobin (CARDIOTOX 99, GenBank AF197916): +4.7 fold
- Effects on Transcription Level: Titin (CARDIOTOX 100, GenBank L38717): −2.1 fold
- Effects on Transcription Level: Skeletal muscle actin (CARDIOTOX 101, GenBank V01218): −18.3 fold
- Effects on Transcription Level: Myosin light chain 2 (MLC2) (CARDIOTOX 102, GenBank M11851): +2.2 fold
- Effects on Transcription Level: Alpha cardiac myosin heavy chain (CARDIOTOX 103, GenBank X15938): −3.5 fold
- Effects on Transcription Level: Troponin I (CARDIOTOX 104, GenBank U77354): +1.8 fold
- Effects on Transcription Level: Cardiac calsequestrin (CARDIOTOX 105, GenBank AF001334): −2.9 fold
- Effects on Transcription Level: Sulfated glycoprotein 2 (CARDIOTOX 106, GenBank M16975): −1.6 fold
- Effects on Transcription Level: Aquaporin 7 (CARDIOTOX 107, GenBank AB000507): +1.5 fold
- Effects on Transcription Level: Carnitine/acylcarnitine carrier protein (CARDIOTOX 108, GenBank X97831): −2.5 fold
- Effects on Transcription Level: Glu-Pro Dipeptide Repeat (CARDIOTOX 109, GenBank U40628): −6.2 fold
- Effects on Transcription Level: Cystatin beta (CARDIOTOX 110, GenBank X54737): +2.5 fold
- Effects on Transcription Level: Novel gene fragment, 593 bp, 90% SI to human calcineurin B-like protein [Z08983] (CARDIOTOX 111): +1.10 fold
- Effects on Transcription Level: Novel gene fragment, 179 bp, 88% SI to human titin [X90568] (CARDIOTOX 112): −3.1 fold
- Effects on Transcription Level: Novel gene fragment, 700 bp, 91% SI to mouse periplakin (PPL) [AF116523] (CARDIOTOX 113): +2.5 fold
- Effects on Transcription Level: Long chain acyl-CoA dehydrogenase (LCAD) (CARDIOTOX 114, GenBank J05029): +1.7 fold
- Effects on Transcription Level: Sulfated glycoprotein 1 (SGP-1) (CARDIOTOX 115, GenBank M19936): −1.8 fold
- Effects on Transcription Level: Catalase (CARDIOTOX 116, GenBank M11670): +2.1 fold
- Effects on Transcription Level: Alpha-fodrin (A2A) (Nonerythroid spectrin alpha subunit) (CARDIOTOX 117, GenBank AF084186): −1.7 fold
- Effects on Transcription Level: Cardiac specific sodium channel alpha-subunit (CARDIOTOX 118, GenBank M27902): −2.0 fold
- Effects on Transcription Level: Glu-Pro Dipeptide Repeat (CARDIOTOX 119, GenBank U40628): +4.2 fold
- Effects on Transcription Level: Novel gene fragment, 200 bp, 64% SI to human KIAA0733 protein [AB018316] (CARDIOTOX 120): −1.6 fold
- Effects on Transcription Level: RNA polymerase II transcription factor SIII (p18 subunit) (CARDIOTOX 121, GenBank L42855): +2.1 fold
- Effects on Transcription Level: Protein-tyrosine phosphalase (LRP) (CARDIOTOX 122, GenBank L01702): +1.8 fold
- Effects on Transcription Level: Skeletal muscle selenoprotein W (SelW) (CARDIOTOX 123, GenBank U25264): −1.6 fold
- Effects on Transcription Level: Sarcoplasmic reticulum 2+-Ca-ATPase (CARDIOTOX 124, GenBank X15635): −2.1 fold
- Effects on Transcription Level: Ribosomal protein S7 (CARDIOTOX 125, GenBank X53377): +1.7 fold
- Effects on Transcription Level: Ribophorin I (CARDIOTOX 126, GenBank X05300): +2.0 fold
- Effects on Transcription Level: Beta cardiac myosin heavy chain (CARDIOTOX 127, GenBank X15939): +2.2 fold
- Effects on Transcription Level: ADP-ribosylation factor 1 (CARDIOTOX 128, GenBank L12380): +1.3 fold
- Effects on Transcription Level: Laminin receptor (CARDIOTOX 129, GenBank U04942): +2.6 fold
- Effects on Transcription Level: Novel gene fragment, 206 bp, 89% SI to human seryl-tRNA synthetase [X91257] (CARDIOTOX 130): +1.8 fold
- Effects on Transcription Level: Annexin VI (CARDIOTOX 131, GenBank X86086): −09.0 fold
- Effects on Transcription Level: Novel gene fragment, 325 bp, 90% SI to mouse N-RAP [U76618] (CARDIOTOX 132): +1.7 fold
- Effects on Transcription Level: Novel gene fragment, 61 bp (CARDIOTOX 134) (LD10 dose for three days): −3 fold
- Effects on Transcription Level: Novel gene fragment, 337 bp (CARDIOTOX 133) (LD10 dose for three days): −2.1 fold
- Effects on Transcription Level: Novel gene fragment, 378 bp, 88% SI to human coatomer protein (COPA) [U24105] (CARDIOTOX 138) (LD10 dose for three days): −2.1 fold
- Effects on Transcription Level: Long chain 3-ketoacyl-CoA thiolase (CARDIOTOX 136) (LD10 dose for three days, GenBank D16479): −1.5 fold
- Effects on Transcription Level: TATA-binding protein interacting protein 120 (TIP120) (CARDIOTOX 135) (LD10 dose for three days, GenBank D87671): +2.4 fold
- Effects on Transcription Level: Serine protease (CARDIOTOX 139) (LD10 dose for three days, GenBank D88250): +1.7 fold
- Effects on Transcription Level: Thymosin beta-4 (CARDIOTOX 137) (LD10 dose for three days, GenBank M34043): +1.4 fold
- Effects on Transcription Level: Annexin VI (no CARDIOTOX assignment given) (LD10 dose for three days, GenBank X86086): −5.1 fold
